The record followed here is patent publication US11618743B2, “Herbicidal compounds” (SYNGENTA PARTICIPATIONS AG, priority 2017, dated 2023).

Assay in all cases: Post-emergence efficacy, Method A
Holding throughout (assay type): in vivo

One test deals with Lolium perenne (LOLPE). To be noted: Application rate 500 g/Ha; Method A; evaluated after 13 days. In outline:
(§1)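 Foliar application to young plants (14 d post-sowing) in standard soil. Growth conditions before and after: 24/16 °C, 14 h light, 65% humidity. Percent damage read at 13 days after treatment.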

Another test concerns Setaria faberi (SETFA). Conditions: Application rate 500 g/Ha, evaluated after 13 days; for Control of weed species SETFA after post-emergence application (100=total damage to plant; 0=no damage to plant): Method A. In outline: as §1
The test system of test [1] is Digitaria sanguinalis (DIGSA). Conditions: Application rate 500 g/Ha, evaluated after 13 days; for Control of weed species DIGSA after post-emergence application (100=total damage to plant; 0=no damage to plant): Method A. In outline: as §1
A further test has as its system Eleusine indica (ELEIN). To be noted: Application rate 500 g/Ha, evaluated after 13 days; for Control of weed species ELEIN after post-emergence application (100=total damage to plant; 0=no damage to plant): Method A. In outline:
as §1

Test [2] has as its system Chenopodium album (CHEAL). To be noted: Application rate 500 g/Ha, evaluated after 13 days; for Control of weed species CHEAL after post-emergence application (100=total damage to plant; 0=no damage to plant): Method A. In outline: as §1
Test [3] relates to Echinochloa crus-galli (ECHCG). To be noted: Application rate 500 g/Ha, evaluated after 13 days; for Control of weed species ECHCG after post-emergence application (100=total damage to plant; 0=no damage to plant): Method A. In outline:
as §1

The subject of test [4] is Euphorbia heterophylla (EPHHL). Conditions: Application rate 500 g/Ha, evaluated after 13 days; for Control of weed species EPHHL after post-emergence application (100=total damage to plant; 0=no damage to plant): Method A. Put shortly: as §1
Test [5] concerns Amaranthus palmeri (AMAPA). Conditions: Application rate 500 g/Ha, evaluated after 13 days; for Control of weed species AMAPA after post-emergence application (100=total damage to plant; 0=no damage to plant): Method A. In outline:
as §1

Setting [6] is: 100=total damage to plant, 0=no damage.

`O=C(O)CC[n+]1ccc(-c2ncccn2)cn1.O=C([O-])C(F)(F)F` [Compound A125, 3-(4-pyrimidin-2-ylpyridazin-1-ium-1-yl)propanoic acid 2,2,2-trifluoroacetate]: the “Control of weed species LOLPE after post-emergence application (100=total damage to plant; 0=no damage to plant)” value in the test on Lolium perenne (LOLPE) stood at 90.
With `COC(=O)CC[n+]1ccc(-c2ncccn2)cn1.O=C([O-])C(F)(F)F` [Compound A54, methyl 3-(4-pyrimidin-2-ylpyridazin-1-ium-1-yl)propanoate 2,2,2-trifluoroacetate], the “Control of weed species SETFA after post-emergence application (100=total damage to plant; 0=no damage to plant)” value in the test on Setaria faberi (SETFA) was found to be 100. Further, in test [1], the “Control of weed species DIGSA after post-emergence application (100=total damage to plant; 0=no damage to plant)” value is listed as 100. For the same molecule, in the test with Eleusine indica (ELEIN), the “Control of weed species ELEIN after post-emergence application (100=total damage to plant; 0=no damage to plant)” value amounted to 100. Also, the “Control of weed species CHEAL after post-emergence application (100=total damage to plant; 0=no damage to plant)” value in test [2] is 90. Further, the “Control of weed species ECHCG after post-emergence application (100=total damage to plant; 0=no damage to plant)” value in test [3] stood at 90. Besides, the “Control of weed species EPHHL after post-emergence application (100=total damage to plant; 0=no damage to plant)” value in test [4] is 70. Also, in test [5], the “Control of weed species AMAPA after post-emergence application (100=total damage to plant; 0=no damage to plant)” value was found to be 90.
For `O=C(O)CC[n+]1ccc(-c2cc(C(F)(F)F)ncn2)cn1.O=C([O-])C(F)(F)F` [Compound A119], the “Control of weed species SETFA after post-emergence application (100=total damage to plant; 0=no damage to plant)” value in the test with Setaria faberi (SETFA) is 40. For the same molecule, the “Control of weed species DIGSA after post-emergence application (100=total damage to plant; 0=no damage to plant)” value in test [1] is listed as 40. In addition, in the test on Eleusine indica (ELEIN), the “Control of weed species ELEIN after post-emergence application (100=total damage to plant; 0=no damage to plant)” value is 30. Further, in test [2], the “Control of weed species CHEAL after post-emergence application (100=total damage to plant; 0=no damage to plant)” value came to 100. In addition, in test [3], the “Control of weed species ECHCG after post-emergence application (100=total damage to plant; 0=no damage to plant)” value turned out to be 30. Besides, in test [4], the “Control of weed species EPHHL after post-emergence application (100=total damage to plant; 0=no damage to plant)” value came to 70. For the same molecule, the “Control of weed species AMAPA after post-emergence application (100=total damage to plant; 0=no damage to plant)” value in test [5] is reported as 100.
As for `CC(C)(CC(=O)O)[n+]1ccc(-c2ccncn2)cn1.O=C([O-])C(F)(F)F` [Compound A189], the “Control of weed species after post-emergence application, SETFA” value with Setaria faberi (SETFA) (setting [6]) is listed as 70. For the same molecule, in test [1] (setting [6]), the “Control of weed species after post-emergence application, DIGSA” value turned out to be 50. For the same molecule, the “Control of weed species after post-emergence application, ELEIN” value with Eleusine indica (ELEIN) (setting [6]) is 90. In addition, the “Control of weed species after post-emergence application, CHEAL” value in test [2] (setting [6]) was 100. Also, the “Control of weed species after post-emergence application, ECHCG” value in test [3] (setting [6]) is reported as 80. Besides, the “Control of weed species after post-emergence application, EPHHL” value in test [4] (setting [6]) was found to be 90. Further, the “Control of weed species after post-emergence application, AMAPA” value in test [5] (setting [6]) is 100.
Consider `O=C(O)CC[n+]1ccc(-c2ncccn2)cn1.[Cl-]` [Compound A26, 3-(4-pyrimidin-2-ylpyridazin-1-ium-1-yl)propanoic Acid Chloride], for which, in the test on Setaria faberi (SETFA), the “Control of weed species SETFA after post-emergence application (100=total damage to plant; 0=no damage to plant)” value came to 100. For the same molecule, the “Control of weed species LOLPE after post-emergence application (100=total damage to plant; 0=no damage to plant)” value in the test on Lolium perenne (LOLPE) amounted to 90. In addition, the “Control of weed species ECHCG after post-emergence application (100=total damage to plant; 0=no damage to plant)” value in test [3] is on record as 100.
`COC(=O)CC[n+]1ccc(-c2cccnn2)cn1.O=C([O-])C(F)(F)F` [Compound A139]: the “Control of weed species SETFA after post-emergence application (100=total damage to plant; 0=no damage to plant)” value in the test on Setaria faberi (SETFA) came out at 100. Further, in test [1], the “Control of weed species DIGSA after post-emergence application (100=total damage to plant; 0=no damage to plant)” value is 100. For the same molecule, in the test with Eleusine indica (ELEIN), the “Control of weed species ELEIN after post-emergence application (100=total damage to plant; 0=no damage to plant)” value stood at 100. The “Control of weed species CHEAL after post-emergence application (100=total damage to plant; 0=no damage to plant)” value in test [2] amounted to 100. Also, the “Control of weed species ECHCG after post-emergence application (100=total damage to plant; 0=no damage to plant)” value in test [3] turned out to be 100. Also, the “Control of weed species EPHHL after post-emergence application (100=total damage to plant; 0=no damage to plant)” value in test [4] came out at 90. The “Control of weed species AMAPA after post-emergence application (100=total damage to plant; 0=no damage to plant)” value in test [5] is 80.
